{
  "source": "patent US20200270576A1",
  "about": "“Ex Vivo Maintenance and Expansion of Stem Cells” (priority 2017, published 2020)",
  "key": {"[1]": {"test_system": "bone marrow cells", "test": "TMI fluorescence (unfolded protein) in bone marrow cells from treated mice", "type": "in vivo", "settings": "bone marrow cells isolated from treated mice", "experimental": "FIG. 6A-D depict the validation of tetraphenylethene maleimide (TMI) as a probe to measure unfolded protein. FIG. 6A depicts that TMI is a cell permeable dye that fluoresces upon binding to cysteine thiols. The free thiol side chains of non-disulphide bonded hydrophobic cysteines are typically buried within the core of globular proteins, but can be exposed in unfolded proteins. FIG. 6B depicts that TMI fluorescence was higher in bone marrow cells after a 4 hour incubation at 42° C. as compared to 37° C. Since heat shock induces protein unfolding, this validated TMI as a means to quantify unfolded protein. FIG. 6C depicts that TMI fluorescence in bone marrow cells was increased after treatment with the proteasome inhibitor bortezomib. […] FIG. 6B-D validated that TMI can be used to quantify unfolded protein (protein quality) in hematopoietic cells.\nAs a complement to evaluating protein quality by assessing changes in ubiquitylated protein, a quantitative orthogonal assay to measure protein quality was developed. Tetraphenylethene maleimide (TMI) is a cell permeable dye that fluoresces upon binding to cysteine thiols. […] We adapted TMI to quantify unfolded proteins within single hematopoietic cells by flow cytometry. We validated TMI by assessing the effect of heat shock, which induces protein unfolding, on TMI fluorescence in bone marrow cells. […]"}, "[2]": {"test_system": "Hsf1-deficient and control HSCs", "test": "Competitive transplantation of cultured wild-type and Hsf1-deficient HSCs", "type": "cell-based, mice", "settings": "12 weeks after transplantation", "text": "FIG. 17 depicts that Hsf1 is required for 17-AAG and HSF1A to enhance HSC maintenance and expansion in vitro. Donor cell engraftment 12 weeks after transplantation of 10 wild-type and Hsf1-deficient HSCs cultured for 10 days in the presence or absence of 17-AAG, HSF1A or DMSO. Cells were transplanted with 2×10^5 freshly isolated congenic bone marrow cells (n=7-9; *P<0.05, **P<0.01).\nWe tested whether the positive effects of 17-AAG and HSF1A on HSC maintenance/expansion in vitro were mediated by Hsf1. Purified Hsf1-deficient and control HSCs were sorted from adult bone marrow (CD45.2^+) into 96-well plates (10/well) containing HSC medium supplemented with 17-AAG, HSF1A or vehicle (DMSO). HSCs were cultured for 10 days and competitively transplanted with 2×10^5 freshly isolated congenic bone marrow cells (CD45.1^+) into irradiated mice (CD45.1^+). Recipient mice were bled monthly to assess levels of donor-derived CD45.2^+ hematopoietic cells. […] However, the positive effect of 17-AAG and HSF1A was lost with Hsf1-deficient HSCs (FIG. 17)."}, "[3]": {"test_system": "HSCs", "test": "Competitive transplantation of HSCs cultured 10 days, with serial transplantation", "type": "cell-based, murine", "text": "FIG. 16A-B depict that HSC functionality is maintained and expanded in vitro by interventions that can induce/activate Hsf1. FIG. 16A depicts donor cell engraftment 16 weeks after transplantation of 10 HSCs cultured for 10 days in the presence or absence of an HSP90 inhibitor (17-AAG) or TRiC inhibitor (HSF1A) or from 10 freshly isolated HSCs. Cells were transplanted with 2×10^5 freshly isolated congenic bone marrow cells (n=3 independent experiments with 3-5 recipients/condition/experiment). […] Addition of either 17-AAG or HSF1A increased the reconstituting potential of cultured HSCs as compared to both control cultured and freshly isolated HSCs.\nTo test if HSCs depend on Hsf1 for their maintenance in vitro, we conditionally deleted Hsf1 from HSCs, cultured them for 10 days and assessed their long-term multilineage reconstituting activity in competitive transplantation assays. The assay for testing HSC function is to assess their capacity to give long-term (16+ week) multilineage (B cell, T cell and myeloid cell) reconstitution of the blood system of an irradiated transplant recipient. A competitive transplantation assay provides a quantitative readout of HSC regenerative activity.\nModest declines in proteostasis impair HSC maintenance in vivo. […] This raises the possibility that increasing Hsf1 activity could promote HSC maintenance in vitro by enhancing proteostasis capacity. To test if HSP90 inhibitors or TRiC inhibitors promote HSC maintenance in vitro, purified HSCs were sorted from young adult murine bone marrow (CD45.1^+) into 96-well plates (10/well) containing our HSC medium supplemented with 17-AAG or HSF1A. HSCs were cultured for 10 days and competitively transplanted with 2×10^5 freshly isolated congenic bone marrow cells (CD45.2^+) into irradiated mice (CD45.2^+). Recipient mice were bled monthly (for 4 months) to assess levels of donor-derived CD45.1^+ hematopoietic cells. Self-renewal capacity of HSCs was assessed by serially transplanting hematopoietic cells from the primary recipients into secondary irradiated recipients (3×10^6 cells/recipient). […] Similar results are expected for other HSP90 or TRiC inhibitors.\nTo test if HSP90 inhibitors or TRiC inhibitors enable HSC expansion in vitro, purified HSCs were sorted from young adult bone marrow (CD45.1^+) into 96-well plates (10/well) containing HSC medium supplemented with 17-AAG or HSF1A. HSCs were cultured for 10 days and competitively transplanted with 2×10^5 freshly isolated congenic bone marrow cells (CD45.2^+) into irradiated mice (CD45.2^+). At the same time, 10 freshly isolated HSCs were transplanted with 2×10^5 freshly isolated congenic bone marrow cells into irradiated mice. Recipient mice were bled monthly (for 4 months) to assess levels of donor-derived CD45.1^+ hematopoietic cells. Self-renewal capacity of HSCs was assessed by serially transplanting hematopoietic cells (3×10^6 cells/recipient) into secondary irradiated recipients. […] Similar results are expected for other HSP90 or TRiC inhibitors."}, "[4]": {"test_system": "Hsf1", "test": "Hsf1 expression and localization by immunofluorescence in cultured HSCs", "type": "cell-based, mouse", "settings": "10 days culture; 17-AAG 5 nM, HSF1A 8 uM final concentration", "text": "FIG. 14 depicts representative immunofluorescence staining of HSCs cultured for 10 days in the presence or absence of 17-AAG or HSF1A. Addition of 17-AAG or HSF1A to culture medium increased Hsf1 accumulation in the nucleus of cultured HSCs. Hsf1-deficient HSCs and cells stained without primary antibody (Neg Con) are shown as controls.\nSince Hsf1 promoted HSC maintenance and protein homeostasis in vitro (FIG. 13), we investigated whether increasing Hsf1 expression or activity would further enhance HSC maintenance. […] Hsf1 can become active as a transcription factor when it translocates to the nucleus. We thus tested whether inhibitors of HSP90 or TRiC would promote Hsf1 accumulation in the nucleus of cultured HSCs by culturing HSCs for 10 days in the presence or absence of 17-AAG (HSP90 inhibitor; 5 nM final concentration) or HSF1A (TRiC inhibitor; 8 uM final concentration), and assessed Hsf1 expression and localization by immunofluorescence."}, "[5]": {"test_system": "CD48-LSK HSCs/MPPs", "test": "Western blot of ubiquitylated protein in cultured HSCs", "type": "cell-based, mouse", "settings": "added to culture medium; HSCs 4 and 18 hours in vitro", "experimental": "FIG. 10A-C depicts increased protein synthesis and reduced protein quality within HSCs in vitro. FIG. 10A depicts relative protein synthesis rates of HSCs normalized to bone marrow cells in vivo (n=6) and after 4 hours in vitro (n=5). Statistical significance was assessed with a two-tailed Student's t-test (***P<0.001). FIGS. 10B and 10C depict western blots that examined ubiquitylated protein levels in freshly isolated or cultured CD48^−LSK HSCs/MPPs. […] The accumulation of ubiquitylated protein was prevented by addition of the translation inhibitor cycloheximide (CHX) to culture medium.\nThe accumulation of ubiquitylated protein could be blocked by adding the translation inhibitor cycloheximide to the culture medium (FIG. 10B, 10C)."}, "[6]": {"test_system": "primary bone marrow cells", "test": "OPP incorporation (protein synthesis) by flow cytometry", "type": "cell-based, mouse", "settings": "pre-treatment with translation inhibitor; primary bone marrow cells in culture", "experimental": "FIG. 1A-D depict quantification of protein synthesis in hematopoietic cells. FIG. 1A depicts how 0-propargyl-puromycin (OPP) was used to quantify protein synthesis within cells. OPP is a puromycin analog with a terminal alkyne group that mimics an aminoacyl-tRNA and integrates into nascent polypeptides. Azide-alkyne cycloaddition can covalently link a fluorescently tagged azide molecule to OPP that has been incorporated into new peptides. FIG. 1B depicts that when OPP was added to cell culture medium, its incorporation in primary bone marrow cells was detected and quantified by flow cytometry. […] FIG. 1C depicts OPP incorporation in CD150^+CD48^−Lineage^−Sca1^+ckit^+ (CD150^+CD48^−LSK) HSCs and unfractionated bone marrow cells one hour after administration in vivo. FIG. 1D depicts OPP incorporation (protein synthesis rates) in HSCs, multipotent progenitors (MPP), common myeloid progenitors (CMP), granulocyte macrophage progenitors (GMP), granulocytes (GR) megakaryocyte erythroid progenitors (MEP), CD71^+Ter119^+ erythroid progenitors (E), pro-B, pre-B, IgM^+ B cells (IgM), CD3^+ T cells (T), and unfractionated bone marrow cells (BM). […] Statistical significance relative to HSCs was assessed using a repeated-measures one way ANOVA followed by Dunnett's test (n=9; **P<0.01, ***P<0.001)."}},
  "data": [
    {"smiles": "CC(C)C[C@H](NC(=O)[C@H](Cc1ccccc1)NC(=O)c1cnccn1)B(O)O", "note": "[Bortezomib]", "values": [
      {"measurement": "increase in TMI fluorescence as compared to cells from vehicle treated controls", "setting": "[1]", "result": "~30", "unit": "%"}
    ]},
    {"smiles": "CCc1ccc(S(=O)(=O)Nc2cc(-c3cccs3)nn2-c2ccccc2)cc1", "note": "[HSF1A]", "values": [
      {"measurement": "donor cell reconstitution vs controls (DMSO), control HSCs", "setting": "[2]; 10 HSCs cultured 10 days", "result": "higher levels of donor cell reconstitution as compared to controls"},
      {"measurement": "positive effect on donor cell reconstitution with Hsf1-deficient HSCs", "setting": "[2]; Hsf1-deficient HSCs cultured 10 days", "result": "lost"},
      {"measurement": "donor cell reconstitution vs recipients of freshly isolated HSCs", "setting": "[3]; 10 HSCs cultured 10 days vs 10 freshly isolated HSCs", "result": "higher levels of donor cell reconstitution as compared to recipients of freshly isolated HSCs"},
      {"measurement": "donor cell reconstitution in primary recipients vs HSCs cultured without agent", "setting": "[3]; 10 HSCs cultured 10 days, with 2x10^5 congenic bone marrow cells, 16 weeks", "result": "significantly higher levels of donor cell reconstitution as compared to controls"},
      {"measurement": "fraction of recipients with long-term multilineage reconstitution vs HSCs cultured without agent", "setting": "[3]; primary and secondary transplants, 16 week, >0.5% B-, T-, myeloid cells", "result": "greater fraction"},
      {"measurement": "fraction of recipients with long-term multilineage reconstitution vs freshly isolated HSCs", "setting": "[3]; secondary transplants", "result": "significantly greater fraction"},
      {"measurement": "donor cell reconstitution in secondary recipients vs HSCs cultured without agent", "setting": "[3]; serial transplant, 3x10^6 cells/recipient", "result": "even more pronounced"},
      {"measurement": "Hsf1 abundance in the nucleus of cultured HSCs", "setting": "[4]", "result": "increase Hsf1 abundance in the nucleus"}
    ]},
    {"smiles": "C[C@@H]1C[C@@H]([C@H](O)CC2CC(=O)NC(=O)C2)C(=O)[C@@H](C)C1", "note": "[cycloheximide]", "values": [
      {"measurement": "accumulation of ubiquitylated protein", "setting": "[5]", "result": "blocked"},
      {"measurement": "incorporation of OPP (new protein synthesis)", "setting": "[6]", "result": "inhibited"}
    ]}
  ]
}
